In assay [1] the target is T1, hRIPK1 (aa 1-375) fusion protein (Homo sapiens, UniProt Q13546).
T1 construct: hRIPK1 (aa 1-375) fusion protein
T1 sequence (Q13546 1-375): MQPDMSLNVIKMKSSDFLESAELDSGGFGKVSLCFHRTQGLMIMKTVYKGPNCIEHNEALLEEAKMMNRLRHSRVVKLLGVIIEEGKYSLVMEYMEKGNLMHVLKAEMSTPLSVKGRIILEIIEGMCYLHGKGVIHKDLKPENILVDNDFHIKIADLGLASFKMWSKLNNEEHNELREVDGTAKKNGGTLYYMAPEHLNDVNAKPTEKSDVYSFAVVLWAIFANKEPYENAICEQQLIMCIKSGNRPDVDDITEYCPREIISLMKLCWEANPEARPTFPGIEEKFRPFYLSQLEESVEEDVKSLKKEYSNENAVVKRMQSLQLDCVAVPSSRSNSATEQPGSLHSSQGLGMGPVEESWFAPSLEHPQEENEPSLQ
In words: ADP-Glo kinase assay, RIPK1 autophosphorylation. It counts as biochemical. The conditions noted are these: Table 1. The protocol:
Evaluation of Receptor-Interacting Protein Kinase 1 Inhibition.
The catalytic activity of RIPK1 was measured by monitoring the conversion of Adenosine triphosphate (ATP) to Adenosine diphosphate (ADP) due to autophosphorylation using an ADP-Glo kinase kit (Promega, catalog no. V9104).
After another 240 minutes incubation at room temperature, 5 μl Promega ADP-Glo reagent I were added to quench the reaction and deplete unconsumed ATP. After an incubation period of 30 minutes, 10 μl Promega ADP-Glo detection reagent II were added resulting in conversion of ADP to ATP, which generates a light-reaction between luciferase and luciferin. Luminescence was quantified after 30 minutes with a Pherastar FS (BMG LABTECH, Ortenberg).
The adjustment was obtained by nonlinear regression using the Levenberg Marquardt algorithm.
A general note: ADP-Glo first removes unused ATP, then detects ADP through luciferase.

Assay [2] has as its system U937 cells. In words: Cellular assay in U937 cells on cell death (necroptosis), TNFα/zVAD.fmk. It counts as cell-based. The conditions noted are these: read-out: U937 IC50. An excerpt:
Cellular Assay in U937 Cells to Measure the Activity of RIPK1-Inhibitors on Cell Death (Necroptosis).
Cell death was quantified in 96 well plates by determination of the amount of live cell using a CellTiter 96 AQueous reagent (Promega), a calorimetric method to measure the amount of live cells by reducing tetrazolium compound [3-(4,5-dimethylthiazol-2-yl)-5-(3-carboxymethoxyphenyl)-2-(4-sulfophenyl)-2H-tetrazolium, inner salt; MTS] into formazan. Absorbance of formazan was read at 490 nm. The inhibitory activity of the test compound was quantified in a concentration response curve (CRC) experiment. Compounds were obtained as 10 mM stock solutions and were diluted 1 to 10 volumes with DMSO to yield a 1 mM solution. From this solution 2 μl were diluted with 998 μl growth medium. 100 μl of 2 μM compound solution was further diluted sequentially with a dilution factor of 2.5 by adding 150 μl growth medium. A total of 10 concentrations were tested ranging from 10 μM to 0.26 nM or from 1 μM to 0.07 nM.
U937 cells were cultured in RPMI1640 Glutamax and 10% heat inactivated FBS. 50 μl cell suspension containing 1×10^6 cells/ml supplemented with 50 μM zVAD.fmk (Benzyloxycarbonyl-Val-Ala-Asp (OMe) fluoromethylketone) and 100 ng/ml recombinant human TNFα were dispensed in each well of a 96-well plate. 50 μl of compound dilutions (see above) were added and the cell suspension incubated overnight (18 to 24 hours) at 37° C., 5% CO2 in a humidified atmosphere (95% rH). High (no compound) and low control (no TNFα, zVAD.fmk) were tested with 7 replicates; all compound concentrations were tested in duplicates on each experimental plate.
CellTiter 96 Aqueous reagent was mixed (100 μl PMS (phenazine methosulfate) solution/2 ml MTS (3-(4,5-[…])-5-(3-carboxymethoxyphenyl)-2-(4-sulfophenyl)-2H-tetrazolium, inner salt) solution) and 20 μl were added per well. After 4 hours incubation at 37° C. (5% CO2 95% rH) optical density was measured at 490 nm on a microplate reader (Tecan Infinite M1000).
The % inhibition is expressed as percentage of the maximal inhibition value obtained in the absence of TNFα/zVAD.fmc.

Counter-ions that a name gives are not always drawn. Like-named read-outs stand apart in the source and are kept apart here. Bounds are passed on as bounds.

For the compound “2-[(3R,4R)-4-[(3S)-3-(5-cyano-3-pyridyl)isoxazolidine-2-carbonyl]-3-fluoro-1-piperidyl]pyrimidine-4-carboxamide and 2-[(3S,4S)-4-[(3S)-3-(5-cyano-3-pyridyl)isoxazolidine-2-carbonyl]-3-fluoro-1-piperidyl]pyrimidine-4-carboxamide [Ex. 092]”, the IC50 (in general, the concentration that gives 50% inhibition) in assay [1] stood at 12.2 nM; in assay [2] (Table 2), 50.2 nM.

`N#Cc1cncc([C@@H]2CCON2C(=O)C2(F)CCN(c3nccc(C#N)n3)CC2(F)F)c1` (mixture of isomers) [Ex. 123]: the half-inhibitory concentration (IC50) is 26.3 nM in assay [1] and 44.2 nM in assay [2] (Homo sapiens, U-937, Table 2). For `NC(=O)c1cc(N2CCC(C(=O)N3OCCC3C3CCCOC3)CC2)ncn1` (racemic) [Ex. 023*, 6-[4-[3-Tetrahydropyran-3-ylisoxazolidine-2-carbonyl]-1-piperidyl]pyrimidine-4-carboxamide TFA salt], in that order: 797 nM and 4670 nM. Regarding `NC(=O)c1ccnc(N2CCC(C(=O)N3OCCC3c3cncc(CO)c3)CC2)n1` (racemic) [Ex. 025*, 2-[4-[3-[5-(Hydroxymethyl)-3-pyridyl]isoxazolidine-2-carbonyl]-1-piperidyl]pyrimidine-4-carboxamide], the IC50 in assay [1] is 51.6 nM; in assay [2] (Homo sapiens, U-937, Table 2), 498 nM. For `NC(=O)c1cncc(C2CCON2C(=O)C2CCN(c3cc(C(N)=O)ncn3)CC2)c1` (racemic) [Ex. 030*], in that order: 247 nM and 4170 nM. As to `N#Cc1ccnc(N2CCC(C(=O)N3OCCC3c3cncc(CO)c3)CC2)n1` (racemic) [Ex. 031*], the IC50 in assay [1] came out at 51.5 nM; in assay [2] (Homo sapiens, U-937, Table 2) it was 395 nM.

Turning to `NC(=O)c1cc(N2CCC(C(=O)N3OCCC3c3cncc(CO)c3)CC2)ncn1` (racemic) [Ex. 032*, 6-[4-[3-[5-(Hydroxymethyl)-3-pyridyl]isoxazolidine-2-carbonyl]-1-piperidyl]pyrimidine-4-carboxamide TFA salt], the IC50 amounted to 180 nM in assay [1] and 2440 nM in assay [2] (Homo sapiens, U-937, Table 2). As to `NC(=O)c1ccnc(N2CCC(C(=O)N3OCCC3c3ccc(N)nc3)CC2)n1` (racemic) [Ex. 036*], the IC50 in assay [1] turned out to be 48.9 nM; in assay [2] (Homo sapiens, U-937, Table 2) it was 198 nM.

On to `N#Cc1ccnc(N2CCC(C(=O)N3OCCC3c3ccc(N)nc3)CC2)n1` (racemic) [Ex. 037*], for which the IC50 was 31.5 nM in assay [1] and 177 nM in assay [2] (Homo sapiens, U-937, Table 2). Take `NC(=O)c1cc(N2CCC(C(=O)N3OCC[C@H]3c3ccc(N)nc3)CC2)ncn1` (racemic) [Ex. 038*]: the IC50 is 89.9 nM in assay [1] and 1710 nM in assay [2] (Homo sapiens, U-937, Table 2).

As for `Cn1cc(C2CCON2C(=O)C2CCN(c3nccc(C(N)=O)n3)CC2)cn1` (racemic) [Ex. 046*], the IC50 in assay [1] turned out to be 65.1 nM; in assay [2] (Homo sapiens, U-937, Table 2), 605 nM. In the same order, the values of `Cn1cc(C2CCON2C(=O)C2CCN(c3nccc(C#N)n3)CC2)cn1` (racemic) [Ex. 047*] are 64.9 nM and 549 nM.

On to `NC(=O)c1cc(N2CCC(C(=O)N3OCCC3c3cncc(F)c3)CC2)ncn1` (racemic) [Ex. 048*], for which the IC50 came out at 33.2 nM in assay [1] and 133 nM in assay [2] (Homo sapiens, U-937, Table 2). For `N#Cc1cc(N2CCC(C(=O)N3OCCC3c3cncc(F)c3)CC2)ncn1` (racemic) [Ex. 049*], in that order: 9.99 nM and 41.1 nM. For `NC(=O)c1ccnc(N2CCC(C(=O)N3OCCC3c3cncc(F)c3)CC2)n1` (racemic) [Ex. 050*], in that order: 26.7 nM and 32.9 nM. In the same order, the values of `COC(=O)c1ccnc(N2CCC(C(=O)N3OCCC3c3cncc(F)c3)CC2)n1` (racemic) [Ex. 051*, Methyl 2-[4-[3-(5-fluoro-3-pyridyl)isoxazolidine-2-carbonyl]-1-piperidyl]pyrimidine-4-carboxylate] are 134 nM and 678 nM. Consider `O=C(O)c1ccnc(N2CCC(C(=O)N3OCCC3c3cncc(F)c3)CC2)n1` (racemic) [Ex. 054*], for which the IC50 in assay [1] is 767 nM; in assay [2] (Homo sapiens, U-937, Table 2) it was over 10000 nM. With `Cn1ccc(C2CCON2C(=O)C2CCN(c3nccc(C#N)n3)CC2)n1` (racemic) [Example 007, 2-[4-[3-(1-methylpyrazol-3-yl)isoxazolidine-2-carbonyl]-1-piperidyl] pyrimidine-4-carbonitrile], the IC50 is 64.9 nM in assay [1] and 2420 nM in assay [2] (Homo sapiens, U-937, Table 2). Take `N#Cc1ccnc(N2CCC(C(=O)N3OCCC3c3ccc4nccn4c3)CC2)n1` (racemic) [Example 014, 2-[4-[3-imidazo[1,2-a]pyridin-6-ylisoxazolidine-2-carbonyl]-1-piperidyl] pyrimidine-4-carbonitrile TFA salt]: the IC50 was 729 nM in assay [1] and over 10000 nM in assay [2] (Homo sapiens, U-937, Table 2). Regarding `NC(=O)c1cc(N2CCC(C(=O)N3OCCC3c3ccc4nccn4c3)CC2)ncn1` (racemic) [Example 015, 6-[4-[3-imidazo[1,2-a]pyridin-6-ylisoxazolidine-2-carbonyl]-1-piperidyl] pyrimidine-4-carboxamide TFA salt], in assay [1], half-maximal inhibition (IC50) required 13100 nM. For the compound `NC(=O)c1ccnc(N2CCC(C(=O)N3OCCC3C3CCCOC3)CC2)n1` (racemic) [Example 024, 2-[4-[3-Tetrahydropyran-3-ylisoxazolidine-2-carbonyl]-1-piperidyl]pyrimidine-4-carboxamide], the IC50 came to 156 nM in assay [1] and 834 nM in assay [2] (Homo sapiens, U-937, Table 2). In the same order, the values of `CNC(=O)c1cncc(C2CCON2C(=O)C2CCN(c3nccc(C#N)n3)CC2)c1` (racemic) [Example 042, 5-[2-[1-(4-cyanopyrimidin-2-yl)piperidine-4-carbonyl]isoxazolidin-3-yl]-N-methyl-pyridine-3-carboxamide] are 193 nM and 6010 nM. As to `NC(=O)c1ccnc(N2CCC(C(=O)N3OCCC3c3cncc(F)c3)CC2)n1` (single isomer, unassigned) [Ex. 069], the IC50 is over 33000 nM in assay [1] and over 10000 nM in assay [2] (Homo sapiens, U-937, Table 2).

As to `N#Cc1cncc([C@@H]2CCON2C(=O)[C@@H]2CCN(c3nccc(C(N)=O)n3)C[C@@H]2F)c1` (single isomer, unassigned) [Ex. 095], the IC50 in assay [1] stood at 30.5 nM; in assay [2] (Homo sapiens, U-937, Table 2) it was 120 nM. For the compound `Cc1ccc([C@@H]2CCON2C(=O)C2CCN(c3cc(C(N)=O)ncn3)CC2)s1` (single isomer, unassigned) [Ex. 176], the IC50 in assay [1] amounted to 22 nM; in assay [2] (Homo sapiens, U-937, Table 2) it was 3.71 nM. For the compound `Cc1ccc(C2CCON2C(=O)C2CCN(c3ncc(C)c(C(N)=O)n3)CC2F)cn1` (single isomer, unassigned) [Ex. 185], the IC50 in assay [1] is 297 nM; in assay [2] (Table 2) it was 1150 nM. Take `N#Cc1cncc([C@@H]2CCON2C(=O)[C@H]2CCN(c3nccc(C(N)=O)n3)C[C@H]2F)c1` (single isomer, unassigned) [compound 96]: the IC50 in assay [1] is 26 nM; in assay [2] (Homo sapiens, U-937, Table 2) it was 204 nM. Regarding `N#Cc1cncc([C@@H]2CCON2C(=O)C2CCN(c3nccc(C(=O)O)n3)CC2)c1` (single isomer, unassigned) [compound 102], the IC50 in assay [1] was 443 nM; in assay [2] (Homo sapiens, U-937, Table 2) it was over 10000 nM. Consider `Cc1ccc(C2CCON2C(=O)C2CCN(c3ncc(C)c(C(N)=O)n3)CC2F)cn1` (single isomer, unassigned) [compound 186], for which the results for the IC50 in assay [1] and in assay [2] (Table 2) were 38.4 nM and 148 nM, respectively. In assay [1], `N#Cc1cncc([C@H]2CCON2C(=O)C2CCN(c3nccc(C(N)=O)n3)CC2)c1` [Ex. 016] came in with an IC50 of 18800 nM.

For the compound `COC(=O)c1ccnc(N2CCC(C(=O)N3OCC[C@H]3c3cncc(C#N)c3)CC2)n1` [compound 100], the midpoint of inhibition in assay [1], the IC50, lay at 24.5 nM.

The values are drawn from patent US12655139B2, “Isoxazolidines as RIPK1 inhibitors and use thereof” (SANOFI, priority 2020, dated 2026).
